Read-outs that look alike come from different tables or passages of the source.
Experiments:
[1] = In vitro biodegradation in Seronorm (release of Isopaque analysed by HPLC); assay type: in vitro ADME; conditions: pH 7.4, 37° C.
Method: (§1) The powdered product of Example 1 is suspended in Seronorm (5 mg/ml) (Seronorm is a trade mark of Nycomed AS) at pH 7.4 and agitated at 37° C. As a control the experiment is also performed in phosphate buffered saline (PBS) at pH 7.4. At different time points samples are taken from the supernatant after centrifugation of the vial (4,000 rpm, 10 minutes). The release of Isopaque (5-(N-acetylamino)-3-(N-acetyl-N-methylamino)-2,4,6-triiodobenzenecarboxylic acid) is analysed by HPLC. More than 50% of the substance is hydrolysed during 6 hours and after 24 hours 90% is hydrolysed.
(§2) The powdered product of Example 3 is suspended in Seronorm (0.5 mg/ml) at pH 7.4 and agitated at 37° C. As a control the experiment is also performed in phosphate buffered saline (PBS) at pit 7.4. At different time points samples are taken from the supernatant after centrifugation of the vial (4,000 rpm, 10 minutes). The release of Isopaque (5-(N-acetylamino)-3-(N-acetyl-N-methylamino)-2,4,6-triiodobenzenecarboxylic acid) is analysed by HPLC. 4.1% of the substance is hydrolysed during 24 hours. In PBS 0.12% is hydrolysed during 72 hours.
as §2, with “Example 10” for “Example 3”, “at pH” for “at pit”, “HPLC. […]” for “HPLC. 4.1% of the substance is hydrolysed during 24 hours.”, “PBS 58%” for “PBS 0.12%”
as §2, with “Example 4” for “Example 3”, “Seronorm at” for “Seronorm”, “mg/ml)” for “mg/ml) at”, “at pH” for “at pit”, “HPLC. […] In PBS 34% was” for “HPLC. 4.1% of the substance is”, “hours.” for “hours. In PBS 0.12% is hydrolysed during 72 hours.”

[2] = In vitro biodegradation, control in phosphate buffered saline (PBS); assay type: in vitro ADME; conditions: for degraded at 72 h: pH 7.4, 72 hours
Method: as §1, §2
as §2, with “Example 10” for “Example 3”, “at pH” for “at pit”, “HPLC. […]” for “HPLC. 4.1% of the substance is hydrolysed during 24 hours.”, “PBS 58%” for “PBS 0.12%”
as §2, with “Example 4” for “Example 3”, “Seronorm at” for “Seronorm”, “mg/ml)” for “mg/ml) at”, “at pH” for “at pit”, “HPLC. […] In PBS 34% was” for “HPLC. 4.1% of the substance is”, “hours.” for “hours. In PBS 0.12% is hydrolysed during 72 hours.”

[3] = read-out: substance hydrolysed in PBS

For `CC(=O)Nc1c(I)c(C(=O)OC(C)OC(=O)C(C)(C)C)c(I)c(N(C)C(C)=O)c1I` (stereo not shown) [Example 3, 1-(Pivaloylyloxy)ethyl 5-(N-acetylamino)-3-(N-acetyl-N-methyl-amino)-2,4,6-triiodobenzenecarboxylate], the metabolised at 24 h ([1]; 0.5 mg/ml, read-out: substance hydrolysed) was 4.1% and the degraded at 72 h [2, 3] was 0.12%.

For `CC(=O)Nc1c(I)c(C(=O)OCOC(C)=O)c(I)c(N(C)C(C)=O)c1I` [Example 10, Acetyloxvmethyl 5-(N-acetylamino)-3-(N-acetyl-N-methylamino)-2,4,6-triiodobenzenecarboxylate], the “hydrolysis of substrate” value ([1]; 0.5 mg/ml, after 2 hours) was “completely hydrolysed” and the degraded at 72 h [2, 3] was 58%.

In the case of `CC(=O)Nc1c(I)c(C(=O)OCOC(=O)C(C)(C)C)c(I)c(N(C)C(C)=O)c1I` [Example 1, Pivaloyloxymethyl 5-(N-acetylamino)-3-(N-acetyl-N-methylamino)-2,4,6-triiodobenzenecarboxylate], the metabolised at 6 h ([1]; 5 mg/ml, 6 hours, read-out: substance hydrolysed) is reported as greater than 50%, the metabolised at 24 h ([1]; 5 mg/ml, read-out: substance hydrolysed) is reported as 90% and the “hydrolysis in PBS” value ([2]; pH 7.4, control) is reported as “no hydrolysis could be detected”.

In the case of `CC(=O)Nc1c(I)c(C(=O)OC(C)OC(C)=O)c(I)c(N(C)C(C)=O)c1I` (stereo not shown) [Example 4, 1-(Acetyloxy)ethyl 5-(N-acetylamino)-3-(N-acetyl-N-methylamino)-2,4,6-triiodobenzenecarboxylate], the metabolised at 2 h ([1]; 0.5 mg/ml, 2 hour incubation, read-out: substance hydrolysed) is reported as 29%, the “hydrolysis” value ([1]; 0.5 mg/ml, after 24 hours) is reported as “hydrolysis is complete” and the degraded at 24 h ([2]; pH 7.4, 24 hours, read-out: substance hydrolysed in PBS) is reported as 34%.
